From US20250268877A1 (BIOGEN MA INC., priority 2020, published 2025)
In brackets after ≈: the same amount, converted by molar mass.

Legend:
MDR1 = MDR1 (Homo sapiens (Human), UniProt P08183); test: MDR1-MDCK assay (apparent permeability, efflux ratio); format: in vitro ADME; conditions: human, MDCK-MDR1, 1 μM, read-out: MDR1-MDCK_Efflux Ratio
[1] = Kinetic solubility assay (CLND), potassium phosphate buffer pH 6.8; format: physicochemical; conditions: potassium phosphate buffer, pH 6.8, aqueous buffer, kinetic from dmso stock, pH 6.8, 2% DMSO, 24 hours at ambient temperature
IRAK4 = IRAK4 (Homo sapiens (Human), UniProt Q9NWZ3); test: IRAK4 2-hour 1 mM ATP Biochemical Assay (MesoScale Detection format); conditions: 100 pM IRAK4, read-out: IRAK4 IC50
Chain of IRAK4 (Q9NWZ3 whole entry): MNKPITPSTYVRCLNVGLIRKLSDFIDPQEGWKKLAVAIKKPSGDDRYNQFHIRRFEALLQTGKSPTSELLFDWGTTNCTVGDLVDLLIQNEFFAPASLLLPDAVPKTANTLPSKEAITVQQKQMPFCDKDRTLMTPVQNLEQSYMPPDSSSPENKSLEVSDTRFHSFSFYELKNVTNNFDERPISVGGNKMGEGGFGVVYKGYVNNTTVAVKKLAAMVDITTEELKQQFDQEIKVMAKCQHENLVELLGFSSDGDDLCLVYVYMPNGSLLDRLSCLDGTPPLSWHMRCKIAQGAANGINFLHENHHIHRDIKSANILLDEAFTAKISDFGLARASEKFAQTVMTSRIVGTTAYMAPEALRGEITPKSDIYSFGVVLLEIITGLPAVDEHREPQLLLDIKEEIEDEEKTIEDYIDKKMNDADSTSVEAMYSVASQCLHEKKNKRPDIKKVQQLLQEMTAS

Chain of MDR1 (P08183 whole entry): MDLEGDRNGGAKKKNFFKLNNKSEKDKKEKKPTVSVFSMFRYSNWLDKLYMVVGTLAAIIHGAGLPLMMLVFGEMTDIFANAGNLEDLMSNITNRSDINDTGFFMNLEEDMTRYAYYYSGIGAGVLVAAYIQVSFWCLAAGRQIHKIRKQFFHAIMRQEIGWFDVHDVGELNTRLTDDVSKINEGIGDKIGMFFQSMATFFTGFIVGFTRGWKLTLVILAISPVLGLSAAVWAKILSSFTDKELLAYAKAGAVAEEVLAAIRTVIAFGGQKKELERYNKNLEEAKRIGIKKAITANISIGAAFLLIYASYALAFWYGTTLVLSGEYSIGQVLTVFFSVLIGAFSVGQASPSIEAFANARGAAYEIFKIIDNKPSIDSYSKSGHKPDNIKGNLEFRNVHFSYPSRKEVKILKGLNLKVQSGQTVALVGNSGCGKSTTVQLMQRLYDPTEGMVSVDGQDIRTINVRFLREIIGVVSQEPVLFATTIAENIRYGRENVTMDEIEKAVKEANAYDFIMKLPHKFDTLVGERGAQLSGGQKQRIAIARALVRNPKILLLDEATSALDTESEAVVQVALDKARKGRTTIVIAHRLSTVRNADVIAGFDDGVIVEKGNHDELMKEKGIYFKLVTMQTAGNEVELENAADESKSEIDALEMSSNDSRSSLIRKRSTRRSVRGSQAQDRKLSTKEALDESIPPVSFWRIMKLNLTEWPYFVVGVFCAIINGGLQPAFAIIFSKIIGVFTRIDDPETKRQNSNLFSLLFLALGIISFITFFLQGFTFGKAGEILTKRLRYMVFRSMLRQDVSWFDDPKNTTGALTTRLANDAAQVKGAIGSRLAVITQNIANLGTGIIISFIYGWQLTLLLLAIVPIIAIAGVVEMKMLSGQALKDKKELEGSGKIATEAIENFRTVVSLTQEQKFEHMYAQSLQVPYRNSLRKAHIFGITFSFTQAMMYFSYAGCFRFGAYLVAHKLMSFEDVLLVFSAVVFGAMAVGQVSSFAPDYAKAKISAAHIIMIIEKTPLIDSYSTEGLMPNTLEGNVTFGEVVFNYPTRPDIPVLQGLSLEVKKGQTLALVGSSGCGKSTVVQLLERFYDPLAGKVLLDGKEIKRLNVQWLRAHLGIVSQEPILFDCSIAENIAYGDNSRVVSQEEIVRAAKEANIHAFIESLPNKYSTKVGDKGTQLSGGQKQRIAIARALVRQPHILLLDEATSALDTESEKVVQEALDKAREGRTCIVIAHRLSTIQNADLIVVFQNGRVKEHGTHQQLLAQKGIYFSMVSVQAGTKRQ

efflux ratio at 120 min, 1 μM (MDR1) | solubility at 24 h [1] [µg/mL] | IC50 (IRAK4) [nM] | SMILES
4.48 | 16.7 (≈ 35.7 µM) |  | CC(C)Oc1nc2nn(C34COC(C)(C3)C4)cc2cc1C(=O)Nc1cccn([C@@H]2C[C@@H]2F)c1=O [Example 83, N-(1-((1R,2S)-2-fluorocyclopropyl)-2-oxo-1,2-dihydropyridin-3-yl)-6-isopropoxy-2-(1-methyl-2-oxabicyclo[2.1.1]hexan-4-yl)-2H-pyrazolo[3,4-b]pyridine-5-carboxamide]
1.03 |  | 27 | CC(C)Oc1nc2nn(C34COC(C)(C3)C4)cc2cc1C(=O)Nc1cccn([C@@H]2CC2(C)C)c1=O [Example 22, (R)—N-(1-(2,2-dimethylcyclopropyl)-2-oxo-1,2-dihydropyridin-3-yl)-6-isopropoxy-2-(1-methyl-2-oxabicyclo[2.1.1]hexan-4-yl)-2H-pyrazolo[3,4-b]pyridine-5-carboxamide]
2.07 |  | 26.5 | CC(C)Oc1cc2nn(C34COC(C3)C4)cc2cc1C(=O)Nc1cccn([C@@H]2C[C@@H]2C)c1=O [Example 74, 2-(2-oxabicyclo[2.1.1]hexan-4-yl)-6-isopropoxy-N-(1-((1R,2S)-2-methylcyclopropyl)-2-oxo-1,2-dihydropyridin-3-yl)-2H-indazole-5-carboxamide]
1.15 |  | 1.3 | CC(C)Oc1nc2nn(C34COC(C)(C3)C4)cc2cc1C(=O)Nc1cccn([C@H]2CC2(C)C)c1=O [Example 23, (S)—N-(1-(2,2-dimethylcyclopropyl)-2-oxo-1,2-dihydropyridin-3-yl)-6-isopropoxy-2-(1-methyl-2-oxabicyclo[2.1.1]hexan-4-yl)-2H-pyrazolo[3,4-b]pyridine-5-carboxamide]
1.84 | 1.9 (≈ 4.06 µM) |  | CC(C)Oc1nc2nn(C34COC(C)(C3)C4)cc2cc1C(=O)Nc1cccn([C@@H]2C[C@H]2F)c1=O (single isomer, unassigned) [Example 44]
1.82 | 1.8 (≈ 3.85 µM) |  | CC(C)Oc1nc2nn(C34COC(C)(C3)C4)cc2cc1C(=O)Nc1cccn([C@H]2C[C@@H]2F)c1=O (single isomer, unassigned) [Example 43]
 | 65.7 (≈ 141 µM) |  | CC(C)Oc1cc2nn(C34COC(C)(C3)C4)cc2cc1C(=O)Nc1cccn([C@@H]2C[C@@H]2F)c1=O (racemic) [Example 35, (racemic)-Cis-N-(1-(2-fluorocyclopropyl)-2-oxo-1,2-dihydropyridin-3-yl)-6-isopropoxy-2-(1-methyl-2-oxabicyclo[2.1.1]hexan-4-yl)-2H-indazole-5-carboxamide]
3.06 | 15.8 (≈ 33.8 µM) |  | CC(C)Oc1nc2nn(C34COC(C)(C3)C4)cc2cc1C(=O)Nc1cccn([C@H]2C[C@H]2F)c1=O [Example 84, N-(1-((1S,2R)-2-fluorocyclopropyl)-2-oxo-1,2-dihydropyridin-3-yl)-6-isopropoxy-2-(1-methyl-2-oxabicyclo[2.1.1]hexan-4-yl)-2H-pyrazolo[3,4-b]pyridine-5-carboxamide]
4.15 | 6.6 (≈ 14.1 µM) |  | CC(C)Oc1nc2nn(C34COC(C)(C3)C4)cc2cc1C(=O)Nc1cccn([C@@H]2C[C@@H]2F)c1=O (single isomer, unassigned) [Example 33]
1.31 |  | 4.3 | CC(C)Oc1nc2nn(C34COC(C)(C3)C4)cc2cc1C(=O)Nc1cccn(C2(C)CC2)c1=O [Example 18, 6-Isopropoxy-2-(1-methyl-2-oxabicyclo[2.1.1]hexan-4-yl)-N-(1-(1-methylcyclopropyl)-2-oxo-1,2-dihydropyridin-3-yl)-2H-pyrazolo[3,4-b]pyridine-5-carboxamide]
1.59 |  | 2.3 | CC(C)Oc1cc2nn(C34COC(CF)(C3)C4)cc2cc1C(=O)Nc1cccn([C@H]2C[C@@H]2C)c1=O (single isomer, unassigned) [Example 70]
 | 2.3 (≈ 4.97 µM) |  | CC(C)Oc1cc2nn(C34COC(C)(C3)C4)cc2cc1C(=O)Nc1cccn([C@@H]2C[C@H]2C)c1=O (racemic) [Example 39, Racemic-(Trans)-6-isopropoxy-2-(1-methyl-2-oxabicyclo[2.1.1]hexan-4-yl)-N-(1-(2-methylcyclopropyl)-2-oxo-1,2-dihydropyridin-3-yl)-2H-indazole-5-carboxamide]
4.18 | 16 (≈ 34.2 µM) |  | CC(C)Oc1nc2nn(C34COC(C)(C3)C4)cc2cc1C(=O)Nc1cccn([C@@H]2C[C@@H]2F)c1=O (racemic) [Example 32, (rac)-Cis-N-(1-(2-fluorocyclopropyl)-2-oxo-1,2-dihydropyridin-3-yl)-6-isopropoxy-2-(1-methyl-2-oxabicyclo[2.1.1]hexan-4-yl)-2H-pyrazolo[3,4-b]pyridine-5-carboxamide]
1.51 |  | 43.2 | COCC12CC(n3cc4cc(C(=O)Nc5cccn([C@@H]6C[C@@H]6C)c5=O)c(OC(C)C)cc4n3)(CO1)C2 [Example 73, 6-isopropoxy-2-(1-(methoxymethyl)-2-oxabicyclo[2.1.1]hexan-4-yl)-N-(1-((1R,2S)-2-methylcyclopropyl)-2-oxo-1,2-dihydropyridin-3-yl)-2H-indazole-5-carboxamide]
1.77 | 66.5 (≈ 143 µM) |  | CC(C)Oc1cc2nn(C34COC(C)(C3)C4)cc2cc1C(=O)Nc1cccn([C@@H]2C[C@H]2F)c1=O (single isomer, unassigned) [Example 54]
2.69 |  | 27.4 | COCC12CC(n3cc4cc(C(=O)Nc5cccn([C@@H]6C[C@@H]6C)c5=O)c(OC(C)C)nc4n3)(CO1)C2 [Example 72, 6-isopropoxy-2-(1-(methoxymethyl)-2-oxabicyclo[2.1.1]hexan-4-yl)-N-(1-((1R,2S)-2-methylcyclopropyl)-2-oxo-1,2-dihydropyridin-3-yl)-2H-pyrazolo[3,4-b]pyridine-5-carboxamide]
 | 13.6 (≈ 29.4 µM) |  | CC(C)Oc1cc2nn(C34COC(C)(C3)C4)cc2cc1C(=O)Nc1cccn([C@H]2C[C@H]2C)c1=O [Example 96, 6-isopropoxy-2-(1-methyl-2-oxabicyclo[2.1.1]hexan-4-yl)-N-(1-((1S,2R)-2-methylcyclopropyl)-2-oxo-1,2-dihydropyridin-3-yl)-2H-indazole-5-carboxamide]
6.21 |  | 9 | CC(C)Oc1cc2nn(C34COC(CF)(C3)C4)cc2cc1C(=O)Nc1cccn([C@@H]2C[C@@H]2F)c1=O [Example 53, N-(1-((1R,2S)-2-fluorocyclopropyl)-2-oxo-1,2-dihydropyridin-3-yl)-2-(1-(fluoromethyl)-2-oxabicyclo[2.1.1]hexan-4-yl)-6-isopropoxy-2H-indazole-5-carboxamide]
1.91 |  | 6.6 | CC(C)Oc1nc2nn(C34COC(CF)(C3)C4)cc2cc1C(=O)Nc1cccn(C2(C)CC2)c1=O [Example 19, 2-(1-(Fluoromethyl)-2-oxabicyclo[2.1.1]hexan-4-yl)-6-isopropoxy-N-(1-(1-methylcyclopropyl)-2-oxo-1,2-dihydropyridin-3-yl)-2H-pyrazolo[3,4-b]pyridine-5-carboxamide]
3.63 |  | 36.9 | CC(C)Oc1nc2nn(C34COC(C3)C4)cc2cc1C(=O)Nc1cccn([C@@H]2C[C@@H]2C)c1=O [Example 75, 2-(2-oxabicyclo[2.1.1]hexan-4-yl)-6-isopropoxy-N-(1-((1R,2S)-2-methylcyclopropyl)-2-oxo-1,2-dihydropyridin-3-yl)-2H-pyrazolo[3,4-b]pyridine-5-carboxamide]
2.5 | 2.8 (≈ 5.99 µM) |  | CC(C)Oc1nc2nn(C34COC(C)(C3)C4)cc2cc1C(=O)Nc1cccn(C2C[C@@H]2F)c1=O (mixture of isomers) [Example 42, racemic-(Trans)-N-(1-(2-fluorocyclopropyl)-2-oxo-1,2-dihydropyridin-3-yl)-6-isopropoxy-2-(1-methyl-2-oxabicyclo[2.1.1]hexan-4-yl)-2H-pyrazolo[3,4-b]pyridine-5-carboxamide]
2.71 | 56 (≈ 120 µM) |  | CC(C)Oc1cc2nn(C34COC(C)(C3)C4)cc2cc1C(=O)Nc1cccn([C@H]2C[C@H]2F)c1=O (single isomer, unassigned) [Example 37]
2.96 | 69.5 (≈ 149 µM) |  | CC(C)Oc1cc2nn(C34COC(C)(C3)C4)cc2cc1C(=O)Nc1cccn([C@@H]2C[C@@H]2F)c1=O (single isomer, unassigned) [Example 36]

SMILES | efflux ratio at 120 min, 1 μM (MDR1) | solubility at 24 h [1] [µg/mL] | IC50 (IRAK4) [nM]
COCC12CC(n3cc4cc(C(=O)Nc5cccn([C@@H]6C[C@H]6F)c5=O)c(OC5CCC5)cc4n3)(CO1)C2 [Example 57, 6-cyclobutoxy-N-(1-((1R,2R)-2-fluorocyclopropyl)-2-oxo-1,2-dihydropyridin-3-yl)-2-(1-(methoxymethyl)-2-oxabicyclo[2.1.1]hexan-4-yl)-2H-indazole-5-carboxamide] | 2.39 |  | 1.7
CC[C@H](C)Oc1nc2nn(C34COC(CF)(C3)C4)cc2cc1C(=O)Nc1cccn(C2CC2)c1=O [Example 21, (S)-6-(sec-butoxy)-N-(1-cyclopropyl-2-oxo-1,2-dihydropyridin-3-yl)-2-(1-(fluoromethyl)-2-oxabicyclo[2.1.1]hexan-4-yl)-2H-pyrazolo[3,4-b]pyridine-5-carboxamide] | 3.33 |  | 1.1
CC[C@@H](C)Oc1nc2nn(C34COC(CF)(C3)C4)cc2cc1C(=O)Nc1cccn(C2CC2)c1=O [Example 20, (R)-6-(sec-butoxy)-N-(1-cyclopropyl-2-oxo-1,2-dihydropyridin-3-yl)-2-(1-(fluoromethyl)-2-oxabicyclo[2.1.1]hexan-4-yl)-2H-pyrazolo[3,4-b]pyridine-5-carboxamide] | 2.26 |  | 4
